Laboratory results reported in patent EP4691468A1, “PHARMACEUTICAL COMPOSITION FOR TREATING INFLAMMATORY BOWEL DISEASE” (EA Pharma Co., Ltd., priority 2023, dated 2024).

Key:
[1] = Phase 1 single-dose administration study: plasma concentration of Compound (2) by LC/MS/MS; conditions: for Average Plasma Concentrations of Compound (2) after Single-Dose Administration: oral; for Judgment Trough Value / Plasma Concentration Trough Value: Measured Value, Single, Once
Experimental: A phase 1 clinical trial was conducted to evaluate the safety, tolerability, and pharmacokinetics of Compound (1) when orally administered to healthy adult males.
This clinical trial was a single-center, randomized, double-blind, placebo-controlled, single and multiple ascending dose study with the primary objective of evaluating the safety and tolerability of Compound (1) when orally administered to healthy adult males.
The subjects in each cohort consisted of 8 people, of which 6 were assigned to Compound (1) and 2 were assigned to placebo, and they were administered the drug.
The plasma concentration of Compound (2) was measured using a validated measurement method. Specifically, plasma was separated from collected blood and processed, and then the plasma concentration was measured by an LC/MS/MS apparatus.
Compound (1) was orally administered once to 6 healthy adult males per dose and dosage form at doses of 6, 20, 100, 200, and 400 mg in the form of hard capsules (CAP), liquid self-emulsifying drug delivery system (L-SEDDS), or soft capsule self-emulsifying drug delivery system (C-SEDDS).

[2] = PK Simulation Analysis 2 by superposition method (200 mg twice daily); set-up: species or system human; conditions: day 10 of repeated administration
Experimental: The plasma concentration of Compound (2) on day 10 of repeated administration at 200 mg twice daily (every 12 hours) was predicted using the superposition method implemented in the Nonparametric Superposition (NPS) tool of the analysis software Phoenix WinNonlin, applying the results of once-daily administration at 200 mg (Certara L.P.) (Fig. 6). Table 6: Predicted Plasma Concentration (ng/mL) of Compound (2) on Day 10 of Repeated Administration Twice Daily

With Cc1cc(=O)n(-c2ccc(C[C@H](NC(=O)c3cc(F)c(NS(=O)(=O)c4ccc(NC(=O)C(C)(C)C)cc4)cc3F)C(=O)O)cn2)c(=O)n1C [Compound (2)] the “Average Plasma Concentrations of Compound (2) after Single-Dose Administration” value (shortened to “Average Plasma Concentrations”) ([1]; Compound (1) 100 mg CAP, Time 8 h) was 1.357 ng/mL, the “Average Plasma Concentrations” value ([1]; Compound (1) 100 mg CAP, Time 12 h) was 1.276 ng/mL and the “Average Plasma Concentrations” value ([1]; Compound (1) 100 mg CAP, Time 15 h) was 1.135 ng/mL. For the same compound, the “Average Plasma Concentrations” value ([1]; Compound (1) 100 mg CAP, Time 21 h) was 1.046 ng/mL, the “Average Plasma Concentrations” value ([1]; Compound (1) 100 mg CAP, Time 24 h) was 1.030 ng/mL and the “Average Plasma Concentrations” value ([1]; Compound (1) 200 mg C-SEDDS, Time 0.5 h) was “Below quantitation limit”. For the same compound, the “Average Plasma Concentrations” value ([1]; Compound (1) 200 mg C-SEDDS, Time 1 h) was “Below quantitation limit”, the “Average Plasma Concentrations” value ([1]; Compound (1) 200 mg C-SEDDS, Time 1.5 h) was 2.14 ng/mL and the “Average Plasma Concentrations” value ([1]; Compound (1) 200 mg C-SEDDS, Time 2 h) was 6.68 ng/mL. The “Average Plasma Concentrations” value ([1]; Compound (1) 200 mg C-SEDDS, Time 2.5 h) was 10.5 ng/mL, the “Average Plasma Concentrations” value ([1]; Compound (1) 200 mg C-SEDDS, Time 3 h) was 13.4 ng/mL and the “Average Plasma Concentrations” value ([1]; Compound (1) 200 mg C-SEDDS, Time 4 h) was 14.2 ng/mL. The “Average Plasma Concentrations” value ([1]; Compound (1) 200 mg C-SEDDS, Time 5 h) was 10.4 ng/mL, the “Average Plasma Concentrations” value ([1]; Compound (1) 200 mg C-SEDDS, Time 6 h) was 5.91 ng/mL and the “Average Plasma Concentrations” value ([1]; Compound (1) 200 mg C-SEDDS, Time 7 h) was 3.46 ng/mL. For the same compound, the “Average Plasma Concentrations” value ([1]; Compound (1) 200 mg C-SEDDS, Time 8 h) was 3.33 ng/mL, the “Average Plasma Concentrations” value ([1]; Compound (1) 200 mg C-SEDDS, Time 12 h) was 2.48 ng/mL and the “Average Plasma Concentrations” value ([1]; Compound (1) 200 mg C-SEDDS, Time 15 h) was 2.14 ng/mL. The “Average Plasma Concentrations” value ([1]; Compound (1) 200 mg C-SEDDS, Time 21 h) was 1.85 ng/mL, the “Average Plasma Concentrations” value ([1]; Compound (1) 200 mg C-SEDDS, Time 24 h) was 1.69 ng/mL and the “Average Plasma Concentrations” value ([1]; Compound (1) 200 mg L-SEDDS, Time 0.5 h) was 4.28 ng/mL. For the same compound, the “Average Plasma Concentrations” value ([1]; Compound (1) 200 mg L-SEDDS, Time 1 h) was 11.5 ng/mL, the “Average Plasma Concentrations” value ([1]; Compound (1) 200 mg L-SEDDS, Time 1.5 h) was 14.2 ng/mL and the “Average Plasma Concentrations” value ([1]; Compound (1) 200 mg L-SEDDS, Time 2 h) was 13.5 ng/mL. The “Average Plasma Concentrations” value ([1]; Compound (1) 200 mg L-SEDDS, Time 2.5 h) was 13.0 ng/mL, the “Average Plasma Concentrations” value ([1]; Compound (1) 200 mg L-SEDDS, Time 3 h) was 10.9 ng/mL and the “Average Plasma Concentrations” value ([1]; Compound (1) 200 mg L-SEDDS, Time 4 h) was 9.50 ng/mL. The “Average Plasma Concentrations” value ([1]; Compound (1) 200 mg L-SEDDS, Time 5 h) was 6.46 ng/mL, the “Average Plasma Concentrations” value ([1]; Compound (1) 200 mg L-SEDDS, Time 6 h) was 3.97 ng/mL and the “Average Plasma Concentrations” value ([1]; Compound (1) 200 mg L-SEDDS, Time 7 h) was 2.89 ng/mL. For the same compound, the “Average Plasma Concentrations” value ([1]; Compound (1) 200 mg L-SEDDS, Time 8 h) was 2.54 ng/mL, the “Average Plasma Concentrations” value ([1]; Compound (1) 200 mg L-SEDDS, Time 12 h) was 2.07 ng/mL and the “Average Plasma Concentrations” value ([1]; Compound (1) 200 mg L-SEDDS, Time 15 h) was 2.00 ng/mL. The “Average Plasma Concentrations” value ([1]; Compound (1) 200 mg L-SEDDS, Time 21 h) was 2.11 ng/mL, the “Average Plasma Concentrations” value ([1]; Compound (1) 200 mg L-SEDDS, Time 24 h) was 2.25 ng/mL and the “Average Plasma Concentrations” value ([1]; Compound (1) 400 mg L-SEDDS, Time 0.5 h) was 8.84 ng/mL. For the same compound, the “Average Plasma Concentrations” value ([1]; Compound (1) 400 mg L-SEDDS, Time 1 h) was 36.7 ng/mL, the “Average Plasma Concentrations” value ([1]; Compound (1) 400 mg L-SEDDS, Time 1.5 h) was 45.6 ng/mL and the “Average Plasma Concentrations” value ([1]; Compound (1) 400 mg L-SEDDS, Time 2 h) was 45.0 ng/mL. For the same compound, the “Average Plasma Concentrations” value ([1]; Compound (1) 400 mg L-SEDDS, Time 2.5 h) was 40.1 ng/mL, the “Average Plasma Concentrations” value ([1]; Compound (1) 400 mg L-SEDDS, Time 3 h) was 31.8 ng/mL and the “Average Plasma Concentrations” value ([1]; Compound (1) 400 mg L-SEDDS, Time 4 h) was 22.6 ng/mL. For the same compound, the “Average Plasma Concentrations” value ([1]; Compound (1) 400 mg L-SEDDS, Time 5 h) was 14.3 ng/mL, the “Average Plasma Concentrations” value ([1]; Compound (1) 400 mg L-SEDDS, Time 6 h) was 8.41 ng/mL and the “Average Plasma Concentrations” value ([1]; Compound (1) 400 mg L-SEDDS, Time 7 h) was 6.54 ng/mL. For the same compound, the “Average Plasma Concentrations” value ([1]; Compound (1) 400 mg L-SEDDS, Time 8 h) was 4.76 ng/mL, the “Average Plasma Concentrations” value ([1]; Compound (1) 400 mg L-SEDDS, Time 12 h) was 4.34 ng/mL and the “Average Plasma Concentrations” value ([1]; Compound (1) 400 mg L-SEDDS, Time 15 h) was 3.90 ng/mL. The “Average Plasma Concentrations” value ([1]; Compound (1) 400 mg L-SEDDS, Time 21 h) was 3.98 ng/mL, the “Average Plasma Concentrations” value ([1]; Compound (1) 400 mg L-SEDDS, Time 24 h) was 3.79 ng/mL and the “Judgment Trough Value” ([1]; 6/CAP) was “C (less than IC50 (1.9 ng/mL))”. For the same compound, the “Judgment Trough Value” ([1]; 20/CAP) was “C (less than IC50 (1.9 ng/mL))”, the “Plasma Concentration Trough Value” ([1]; 20/CAP) was 0.25 ng/mL and the “Judgment Trough Value” ([1]; 100/CAP) was “C (less than IC50 (1.9 ng/mL))”. For the same compound, the “Plasma Concentration Trough Value” ([1]; 100/CAP) was 1.03 ng/mL, the “Judgment Trough Value” ([1]; 200/C-SEDDS) was “C (less than IC50 (1.9 ng/mL))” and the “Plasma Concentration Trough Value” ([1]; 200/C-SEDDS) was 1.69 ng/mL. The “Judgment Trough Value” ([1]; 200/L-SEDDS) was “B (IC50 (1.9 ng/mL) or higher and less than IC90 (6.9 ng/mL))”, the “Plasma Concentration Trough Value” ([1]; 200/L-SEDDS) was 2.25 ng/mL and the “Judgment Trough Value” ([1]; 400/L-SEDDS) was “B (IC50 (1.9 ng/mL) or higher and less than IC90 (6.9 ng/mL))”. For the same compound, the “Plasma Concentration Trough Value” ([1]; 400/L-SEDDS) was 3.79 ng/mL, the “trough value resulting from C-SEDDS relative to the trough value resulting from L-SEDDS” value ([1]; single-dose administration, 200 mg) was “about 75%” and the “predicted trough value for 200 mg twice daily compared to measured trough value after 400 mg once daily” value [2] was “about twice”.
